Test results published in ChEMBL document CHEMBL4765257, “Synthesis and structure-activity relationship study of pyrrolidine-oxadiazoles as anthelmintics against Haemonchus contortus” (Eur J Med Chem, 2020).
In brackets after ≈: the same amount, converted by molar mass.

Experiments:
[1] = Cytotoxicity against human MCF-10A cells assessed as inhibition of cell viability at 50 uM measured after 48 hrs by DAPI staining based analysis; settings: read-out: INH
[2] = system: MCF-10A; assay: Cytotoxicity against human MCF-10A cells assessed as inhibition of cell viability measured after 48 hrs by DAPI staining based analysis
[3] = system: Haemonchus contortus; assay: Anti-helmintic activity against fourth stage of Haemonchus contortus larvae assessed as reduction in development of L4 stage incubated for 72 hrs followed by reincubation in humidified environment for 4 days; format: functional, organism-based
[4] = system: Haemonchus contortus; assay: Anti-helmintic activity against third-stage Haemonchus contortus larvae assessed as inhibition of xL3 motility measured after 72 hrs; format: functional, organism-based
[5] = Intrinsic clearence in human liver microsomes at 0.5 uM measured upto 60 mins in presence of NADPH measured per mg protein; format: ADME, Microsome; settings: read-out: CLH
[6] = Kinetic solubility of the compound in 0.01M HCl at pH 2.0 incubated for 30 mins by nephelometry; format: physicochemical; settings: read-out: Kinetic_solubility
[7] = Intrinsic clearence in mouse liver microsomes at 0.5 uM measured upto 60 mins in presence of NADPH measured per mg protein; format: ADME, Microsome; settings: read-out: CLH
[8] = Half life in human liver microsomes at 0.5 uM measured upto 60 mins in presence of NADPH; format: ADME, Microsome
[9] = Kinetic solubility of the compound in phosphate buffer pH 6.5 incubated for 30 mins by nephelometry; format: physicochemical; settings: read-out: Kinetic_solubility
[10] = Half life in mouse liver microsomes at 0.5 uM measured upto 60 mins in presence of NADPH; format: ADME, Microsome
[11] = Haemonchus contortus, 72 h, read-out: IC50

Row | SMILES | cytotoxicity at 48 h, 50 µM [1] [%] | IC50 [2] [µM] | IC50 [3] [µM] | IC50 [4, 11] [µM] | other results
1 | O=C(Nc1ccc(Cl)cc1)N1CCC[C@H]1c1nc(-c2ccc(I)cc2)no1 | 23 | > 50 | 50 |  | IC50 [4]: Active
2 | N#Cc1ccc(NC(=O)N2CCC[C@H]2c2nc(-c3ccccc3)no2)cc1 | 27 | > 50 | > 100 | 18 | 
3 | O=C(Nc1ccc(Cl)cc1)N1CCC[C@H]1c1nc(-c2ccc(Br)cc2)no1 | 30 | > 50 | > 100 |  | IC50 [4]: Active
4 | COc1ccc(-c2noc([C@@H]3CCCN3C(=O)Nc3ccc(Cl)cc3)n2)cc1 | 13 | > 50 | > 100 | 50 | 
5 | Cc1ccccc1NC(=O)N1CCC[C@H]1c1nc(-c2ccccc2)no1 |  |  | > 100 | > 100 | 
6 | N#Cc1cccc(NC(=O)N2CCC[C@H]2c2nc(-c3ccccc3)no2)c1 |  |  | > 100 | > 100 | 
7 | O=C(Nc1ccc(Cl)cc1)N1CCC[C@H]1c1nc(-c2ccccc2)no1 | 7.5 | > 50 | 21 | 5.3 | microsomal CLint at 0.5 µM [5]: 19 µL/min/mg; solubility kinetic at 0.5 h [6]: 1.6 µg/mL (≈ 4.34 µM); microsomal CLint at 0.5 µM [7]: 89 µL/min/mg; half-life at 0.5 µM [8]: 93 min; solubility kinetic at 0.5 h [9]: 1.6 µg/mL (≈ 4.34 µM); half-life at 0.5 µM [10]: 20 min
8 | O=C(Nc1ccncc1)N1CCC[C@H]1c1nc(-c2ccccc2)no1 |  |  | > 100 | > 100 | 
9 | O=C(Nc1ccc(Cl)cc1)N1CCC[C@@H]1c1nc(-c2ccccc2)no1 |  |  | > 100 | > 100 | 
10 | O=C(Nc1ccccc1Br)N1CCC[C@H]1c1nc(-c2ccccc2)no1 |  |  | > 100 | > 100 | 
11 | O=C(Nc1ccc(C(F)(F)F)cc1)N1CCC[C@H]1c1nc(-c2ccccc2)no1 | 33 | > 50 | 7 | 9.5 | 
12 | O=C(Nc1ccc(Cl)cc1)N1CCC[C@H]1c1nc(-c2ccc(O)cc2)no1 |  |  | > 100 | > 100 | 
13 | O=C(Nc1cccnc1)N1CCC[C@H]1c1nc(-c2ccccc2)no1 |  |  | > 100 | > 100 | 
14 | O=C(Nc1cccc(Cl)c1)N1CCC[C@H]1c1nc(-c2ccccc2)no1 |  |  | > 100 | > 100 | 
15 | Cc1ccc(-c2noc([C@@H]3CCCN3C(=O)Nc3ccc(Cl)cc3)n2)cc1 | 47 | > 50 | 50 |  | IC50 [4]: Active
16 | Cc1ccc(NC(=O)N2CCC[C@H]2c2nc(-c3ccccc3)no2)cc1 |  |  | > 100 | > 100 | 
17 | O=C(Nc1ccc(Cl)cc1)N1CCCC1c1nc(-c2ccccc2)no1 (centres undefined) |  |  | 0.31 | 3.46 | 
18 | O=C(Nc1ccc(OC(F)(F)F)cc1)N1CCC[C@H]1c1nc(-c2ccccc2)no1 | 18 | > 50 | 13 | 4.2 | 
19 | Cc1cccc(NC(=O)N2CCC[C@H]2c2nc(-c3ccccc3)no2)c1 |  |  | > 100 | > 100 | 
20 | O=C(Nc1ccccc1O)N1CCC[C@H]1c1nc(-c2ccccc2)no1 |  |  | > 100 | > 100 | 

Row | SMILES | cytotoxicity at 48 h, 50 µM [1] [%] | IC50 [2] [µM] | IC50 [3] [µM] | IC50 [4, 11] [µM] | other results
21 | O=C(Nc1ccccc1I)N1CCC[C@H]1c1nc(-c2ccccc2)no1 |  |  | > 100 | > 100 | 
22 | COc1ccccc1NC(=O)N1CCC[C@H]1c1nc(-c2ccccc2)no1 |  |  | > 100 | > 100 | 
23 | O=C(Nc1cccc(O)c1)N1CCC[C@H]1c1nc(-c2ccccc2)no1 |  |  | > 100 | > 100 | 
24 | O=C(Nc1ccc(O)cc1)N1CCC[C@H]1c1nc(-c2ccccc2)no1 |  |  | > 100 | > 100 | 
25 | COc1ccc(NC(=O)N2CCC[C@H]2c2nc(-c3ccccc3)no2)cc1 |  |  | > 100 | > 100 | 
26 | COc1cccc(-c2noc([C@@H]3CCCN3C(=O)Nc3ccc(Cl)cc3)n2)c1 |  |  | > 100 | > 100 | 
27 | CC(=O)c1ccccc1NC(=O)N1CCC[C@H]1c1nc(-c2ccccc2)no1 |  |  | > 100 | > 100 | 
28 | O=C(Nc1ccc(F)cc1)N1CCC[C@H]1c1nc(-c2ccccc2)no1 |  |  | > 100 | > 100 | 
29 | O=C(Nc1ccc(Br)cc1)N1CCC[C@H]1c1nc(-c2ccccc2)no1 | 20 | > 50 | 12 | 1.8 | 
30 | O=C(Nc1ccc(Cl)cc1)N1CCC[C@H]1c1nc(-c2cccc(Cl)c2)no1 | 17 | > 50 | 7.6 | 3 | 
31 | O=C(Nc1ccc(Cl)cc1)N1CCC[C@H]1c1nc(-c2ccc(Cl)cc2)no1 | 22 | > 50 | 20 | 1.5 | 
32 | N#Cc1ccccc1NC(=O)N1CCC[C@H]1c1nc(-c2ccccc2)no1 |  |  | > 100 | > 100 | 
33 | O=C(Nc1ccc(Cl)cc1)N1CCC[C@H]1c1nc(-c2cccc(Br)c2)no1 | 20 | > 50 | > 100 | 1.1 | 
34 | COc1cccc(NC(=O)N2CCC[C@H]2c2nc(-c3ccccc3)no2)c1 |  |  | > 100 | > 100 | 
35 | O=C(Nc1ccc(Cl)cc1)N1CCC[C@H]1c1nc(-c2ccccc2Br)no1 | 30 | > 50 | 22 | 12 | 
36 | Cc1ccccc1-c1noc([C@@H]2CCCN2C(=O)Nc2ccc(Cl)cc2)n1 | 36 | > 50 | 50 | 0.78 | 
37 | N#Cc1ccc(-c2noc([C@@H]3CCCN3C(=O)Nc3ccc(Cl)cc3)n2)cc1 | 11 | > 50 | > 100 | > 100 | 
38 | CC(=O)c1cccc(NC(=O)N2CCC[C@H]2c2nc(-c3ccccc3)no2)c1 |  |  | > 100 | > 100 | 
39 | Cc1cccc(-c2noc([C@@H]3CCCN3C(=O)Nc3ccc(Cl)cc3)n2)c1 | 29 | > 50 | > 100 | 1.9 | 
40 | O=C(Nc1cccc(Br)c1)N1CCC[C@H]1c1nc(-c2ccccc2)no1 |  |  | > 100 | > 100 | 

Row | SMILES | cytotoxicity at 48 h, 50 µM [1] [%] | IC50 [2] [µM] | IC50 [3] [µM] | IC50 [4, 11] [µM] | other results
41 | O=C(Nc1ccc(Cl)cc1)N1CCC[C@H]1c1nc(-c2ccc(F)cc2)no1 | 22 | > 50 | 19 | 1.3 | 
42 | CN(C)S(=O)(=O)c1ccc(NC(=O)N2CCC[C@H]2c2nc(-c3ccccc3)no2)cc1 |  |  | > 100 | > 100 | 
43 | O=C(Nc1ccccc1F)N1CCC[C@H]1c1nc(-c2ccccc2)no1 |  |  | > 100 | > 100 | 
44 | O=C(Nc1ccc(I)cc1)N1CCC[C@H]1c1nc(-c2ccccc2)no1 | 8 | > 50 | 3.2 | 5.6 | 
45 | O=C(Nc1ccc(Cl)cc1)N1CCC[C@H]1c1nc(-c2cccc(O)c2)no1 | 32 | > 50 | 22.4 | 0.78 | 
46 | CC(=O)c1ccc(NC(=O)N2CCC[C@H]2c2nc(-c3ccccc3)no2)cc1 |  |  | > 100 | > 100 | 
47 | CC(C)c1ccc(NC(=O)N2CCC[C@H]2c2nc(-c3ccccc3)no2)cc1 |  |  | > 100 | > 100 | 
48 | N#Cc1cccc(-c2noc([C@@H]3CCCN3C(=O)Nc3ccc(Cl)cc3)n2)c1 | 16 | > 50 | > 100 | > 100 | 
49 | COc1ccccc1-c1noc([C@@H]2CCCN2C(=O)Nc2ccc(Cl)cc2)n1 |  |  | > 100 | > 100 | 
50 | O=C(Nc1ccc(Cl)cc1)N1CCC[C@H]1c1nc(-c2cccc(F)c2)no1 | 22 | > 50 | 18 | 8.1 | 
51 | O=C(Nc1ccc([N+](=O)[O-])cc1)N1CCC[C@H]1c1nc(-c2ccccc2)no1 | 22 | > 50 | 50 | 50 | 
52 | O=C(Nc1ccc(Cl)cc1)N1CCC[C@H]1c1nc(-c2ccccc2F)no1 | 30 | > 50 | > 100 |  | IC50 [4]: Active
53 | O=C(Nc1ccccc1Cl)N1CCC[C@H]1c1nc(-c2ccccc2)no1 |  |  | > 100 | > 100 | 
54 | O=C(Nc1ccc(Cl)cc1)N1CCC[C@H]1c1nc(-c2ccccc2O)no1 |  |  | > 100 | > 100 | 
55 | O=C(Nc1ccccc1)N1CCC[C@H]1c1nc(-c2ccccc2)no1 |  |  | > 100 | > 100 | 
56 | O=C(Nc1cccc(F)c1)N1CCC[C@H]1c1nc(-c2ccccc2)no1 |  |  | > 100 | > 100 | 
57 | O=C(Nc1ccc(Cl)cc1)N1CCC[C@H]1c1nc(-c2ccccc2Cl)no1 | 40 | > 50 | 20 | 9.2 | 
58 | CS(=O)(=O)c1ccc(NC(=O)N2CCC[C@H]2c2nc(-c3ccccc3)no2)cc1 |  |  | > 100 | > 100 | 
59 | C[C@](C#N)(COc1cc(C#N)ccc1C(F)(F)F)NC(=O)c1ccc(SC(F)(F)F)cc1 [MONEPANTEL] | 99 | 26.9 | 0.075 | 0.16 | 
